A short description of series [1]: Rat pharmacokinetic evaluation test. In kind it is in vivo. The following applies: Sprague-Dawley (SD), po, SD rats, male, p.o. 5 mg/kg, plasma. As to the method: SD rats were used as test animals to study the pharmacokinetic behavior of the compounds of the present invention in the rat body (plasma) after oral administration at a dose of 5 mg/kg.
2.2 Experimental Animals: 3 SD Rats/Group, Male, from Shanghai Jiesijie Experimental Animal Co., Ltd., Animal Production License Number (SCXK (Shanghai) 2013-0006 No. 311620400001794).
• Oral administration drug preparation: 20% solutol HS15 in 0.5% MC (methylcellulose)
20 g of a Solutol HS15 solid and 0.5 g of a MC solid powder were weighed and dissolved in 80 mL of purified water, and the mixture was vortexed, mixed until uniform, and subjected to ultrasound treatment to obtain a clear solution of 20% solutol HS15 in 0.5% MC.
The example compound was weighed into a 20 mL glass bottle, the solution was added thereto and the mixture was subjected to ultrasound treatment for 10 minutes to obtain a clear solution with a concentration of 0.5 mg/mL.
3 male SD rats were administered p.o. respectively after the 3 male SD rats were fasted overnight; the p.o. dose was 5 mg/kg and the administration volume was 10 mL/kg.
Blood collection: Before and after administration to rats, 0.2 mL of blood was collected from the jugular vein at 0.25, 0.5, 1, 2, 4, 6, 8 and 24 h, and placed in an EDTA-K2 anticoagulation tube, which was centrifuged at 6000 rpm at 4° C. for 6 min to separate plasma which was stored at −80° C.; the rats were fed 4 h after administration.
1) 160 μL of acetonitrile was added to 40 μL of plasma sample for precipitation, mixed and centrifuged at 3500×g for 5 to 20 min.
2) the treated supernatant solution was taken and subjected to LC/MS/MS to analyze the concentrations of the test compounds. LC/MS/MS analysis instrument: AB Sciex API 4000 Qtrap.
• Liquid phase conditions: Shimadzu LC-20AD pump • Chromatographic column: Agilent ZORBAX XDB-C18 (50×2.1 mm, 3.5 μm) mobile phase: liquid A is 0.1% aqueous formic acid solution, liquid B is acetonitrile • Flow rate: 0.4 mL/min • Elution time: 0-4.0 min, the eluent is as follows:
The main pharmacokinetic parameters were calculated using WinNonlin 6.1.

The target in series [2] is Ba/F3 EGFR Del19/T790M/C797S cells (Homo sapiens, UniProt P00533, T790M/C797S, cells depend on it, form not given). Nature of the series: Cell proliferation inhibition (Cell Titer-Glo), Ba/F3 EGFR Del19/T790M/C797S. In kind it is cell-based, mouse. The settings on record: 72 hours, CellTiter-Glo, read-out: Ba/F3 EGFR Del19_T790M_C797S IC50. From the text: (§1) Experimental objective: The objective of this test example is to test the inhibitory activity of compounds on the proliferation of different EGFR C797S drug-resistant mutant cell lines Ba/F3 EGFR Del19/T790M/C797S, Ba/F3 EGFR L858R/T790M/C797S, and Ba/F3 EGFR Del19/C797S.
(§2) • Ba/F3 EGFR Del19/T790M/C797S cells were purchased from KYinno Biotechnology Co., Ltd.; • Ba/F3 EGFR Del19/C797S cells were purchased from CoBioer Biosciences Co., Ltd.; • Ba/F3 EGFR L858R/T790M/C797S cells were purchased from CoBioer Biosciences Co., Ltd.; • Cell Titer-Glo was purchased from Promega, with a catalog number of G7573; • RPMI 1640 was purchased from Gibco, with a catalog number of 22400089; • FBS was purchased from Gibco, with a catalog number of 10091148; • cell culture plates were purchased from Corning, with a catalog number of 3610.
(§3) The inhibitory activity of the compound on the proliferation of different EGFR C797S drug-resistant mutant cell lines was detected using the Cell Titer-Glo method. The different cell lines were cultured in RPMI 1640 complete culture medium containing 10% FBS under conditions of 37° C. and 5% CO2, the cells were collected by centrifugation when growing to a certain density, and adjusted to appropriate cell density after counting, the cells were spread on a white 96-well plate at 90 μL/well, and cultured in a 37° C., 5% CO2 incubator overnight, prepared compound solutions of different concentrations were added at 10 μL/well, corresponding solvent controls were set, and all wells were cultured in a 37° C., 5% CO2 incubator for 72 hours, 50 μL of CellTiter-Glo solution was added to each well, shook and mixed evenly, and incubated in the dark for 10 minutes, and a BioTek Synergy H1 microplate reader was used for reading.
(§4) The luminescence signal value was used to calculate the inhibition rate. Graphpad Prism software was used to fit the concentration and inhibition rate to a nonlinear regression curve, so as to obtain the IC50 value, as shown in the Table below for details.

In series [3] the target is Ba/F3 EGFR Del19/C797S cells (Homo sapiens, UniProt P00533, C797S, cells depend on it, form not given). Put plainly: Cell proliferation inhibition (Cell Titer-Glo), Ba/F3 EGFR Del19/C797S. The following applies: 72 hours, CellTiter-Glo, read-out: Ba/F3 EGFR Del19/C797S IC50. In kind it is cell-based, mouse.
From the text: as §1, §2, §3, §4

In series [4] the target is Ba/F3 EGFR L858R/T790M/C797S cells (Homo sapiens, UniProt P00533, T790M/C797S/L858R, cells depend on it). Put plainly: Cell proliferation inhibition (Cell Titer-Glo), Ba/F3 EGFR L858R/T790M/C797S. In kind it is cell-based, mouse. The settings on record: 72 hours, CellTiter-Glo, read-out: Ba/F3 EGFR L858R_T790M_C797S IC50.
From the text: as §1, §2, §3, §4

Experimental findings from patent US20250206718A1, “NITROGEN-CONTAINING HETEROCYCLIC DERIVATIVE INHIBITOR, PREPARATION METHOD THEREFOR AND USE THEREOF” (SHANGHAI HANSOH BIOMEDICAL CO., LTD., priority 2022, published 2025) are described below.

Chain of Ba/F3 EGFR L858R/T790M/C797S cells (P00533 whole entry T790M/C797S/L858R): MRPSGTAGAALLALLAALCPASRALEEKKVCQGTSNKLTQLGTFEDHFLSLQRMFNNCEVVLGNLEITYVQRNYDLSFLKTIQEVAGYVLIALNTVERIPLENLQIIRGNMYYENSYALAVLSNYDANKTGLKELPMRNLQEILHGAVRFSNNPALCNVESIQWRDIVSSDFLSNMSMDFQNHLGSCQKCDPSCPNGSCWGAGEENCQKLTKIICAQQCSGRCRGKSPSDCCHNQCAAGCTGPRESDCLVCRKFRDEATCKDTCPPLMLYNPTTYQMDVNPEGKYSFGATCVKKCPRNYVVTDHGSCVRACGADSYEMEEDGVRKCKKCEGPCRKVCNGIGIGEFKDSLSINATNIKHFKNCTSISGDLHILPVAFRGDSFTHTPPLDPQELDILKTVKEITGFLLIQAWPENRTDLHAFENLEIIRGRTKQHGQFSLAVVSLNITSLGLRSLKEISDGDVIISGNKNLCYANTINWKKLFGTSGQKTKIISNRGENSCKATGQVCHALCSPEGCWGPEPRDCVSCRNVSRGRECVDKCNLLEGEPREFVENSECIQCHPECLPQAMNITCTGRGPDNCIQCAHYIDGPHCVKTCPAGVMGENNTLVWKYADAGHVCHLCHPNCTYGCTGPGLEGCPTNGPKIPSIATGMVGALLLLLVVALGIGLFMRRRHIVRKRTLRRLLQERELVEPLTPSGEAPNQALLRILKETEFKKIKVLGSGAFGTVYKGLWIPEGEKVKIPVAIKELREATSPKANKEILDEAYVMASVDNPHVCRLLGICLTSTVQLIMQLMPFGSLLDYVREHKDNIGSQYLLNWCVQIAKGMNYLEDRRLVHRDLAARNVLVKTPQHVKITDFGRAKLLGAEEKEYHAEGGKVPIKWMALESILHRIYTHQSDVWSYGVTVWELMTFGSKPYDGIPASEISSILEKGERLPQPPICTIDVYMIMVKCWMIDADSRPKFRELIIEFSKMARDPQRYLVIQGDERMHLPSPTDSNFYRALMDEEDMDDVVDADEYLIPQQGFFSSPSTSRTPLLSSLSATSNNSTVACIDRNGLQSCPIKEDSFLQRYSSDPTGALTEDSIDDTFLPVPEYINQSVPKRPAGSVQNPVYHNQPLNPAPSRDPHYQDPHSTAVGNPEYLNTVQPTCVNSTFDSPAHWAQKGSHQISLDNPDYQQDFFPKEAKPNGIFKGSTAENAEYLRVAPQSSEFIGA
Chain of Ba/F3 EGFR Del19/C797S cells (P00533 with tags, fused parts or gaps DEL746-750/C797S, form open): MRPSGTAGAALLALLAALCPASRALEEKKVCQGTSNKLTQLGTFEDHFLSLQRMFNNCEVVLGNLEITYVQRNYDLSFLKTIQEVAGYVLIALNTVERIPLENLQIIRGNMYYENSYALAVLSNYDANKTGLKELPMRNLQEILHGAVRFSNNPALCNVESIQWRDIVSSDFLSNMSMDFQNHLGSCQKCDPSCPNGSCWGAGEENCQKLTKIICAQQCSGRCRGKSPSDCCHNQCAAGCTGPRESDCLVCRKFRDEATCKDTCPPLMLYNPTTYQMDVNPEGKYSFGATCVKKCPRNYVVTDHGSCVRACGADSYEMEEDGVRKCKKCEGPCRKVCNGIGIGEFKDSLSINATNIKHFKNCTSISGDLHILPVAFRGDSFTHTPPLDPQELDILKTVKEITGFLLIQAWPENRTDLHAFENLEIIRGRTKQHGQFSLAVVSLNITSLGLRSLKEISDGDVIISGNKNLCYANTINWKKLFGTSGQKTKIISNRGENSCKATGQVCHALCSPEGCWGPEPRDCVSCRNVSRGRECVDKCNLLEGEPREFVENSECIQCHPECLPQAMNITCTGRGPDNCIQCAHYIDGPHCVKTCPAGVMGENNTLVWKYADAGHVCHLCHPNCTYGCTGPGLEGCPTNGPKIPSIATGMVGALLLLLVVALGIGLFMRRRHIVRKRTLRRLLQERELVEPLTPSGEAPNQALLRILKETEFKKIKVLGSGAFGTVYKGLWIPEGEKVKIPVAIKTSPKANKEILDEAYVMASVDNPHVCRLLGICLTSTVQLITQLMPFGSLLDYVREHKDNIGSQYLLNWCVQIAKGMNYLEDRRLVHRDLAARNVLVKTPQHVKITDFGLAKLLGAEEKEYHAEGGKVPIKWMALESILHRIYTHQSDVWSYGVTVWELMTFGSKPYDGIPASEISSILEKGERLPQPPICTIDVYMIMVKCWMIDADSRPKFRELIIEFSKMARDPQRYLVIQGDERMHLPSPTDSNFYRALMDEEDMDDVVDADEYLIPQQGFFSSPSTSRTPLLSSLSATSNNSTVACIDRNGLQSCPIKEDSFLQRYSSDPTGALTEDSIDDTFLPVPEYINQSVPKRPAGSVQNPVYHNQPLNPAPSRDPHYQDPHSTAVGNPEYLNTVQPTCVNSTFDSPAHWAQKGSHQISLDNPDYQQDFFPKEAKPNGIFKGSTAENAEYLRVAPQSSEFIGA
Chain of Ba/F3 EGFR Del19/T790M/C797S cells (P00533 with tags, fused parts or gaps DEL746-750/T790M/C797S, form open): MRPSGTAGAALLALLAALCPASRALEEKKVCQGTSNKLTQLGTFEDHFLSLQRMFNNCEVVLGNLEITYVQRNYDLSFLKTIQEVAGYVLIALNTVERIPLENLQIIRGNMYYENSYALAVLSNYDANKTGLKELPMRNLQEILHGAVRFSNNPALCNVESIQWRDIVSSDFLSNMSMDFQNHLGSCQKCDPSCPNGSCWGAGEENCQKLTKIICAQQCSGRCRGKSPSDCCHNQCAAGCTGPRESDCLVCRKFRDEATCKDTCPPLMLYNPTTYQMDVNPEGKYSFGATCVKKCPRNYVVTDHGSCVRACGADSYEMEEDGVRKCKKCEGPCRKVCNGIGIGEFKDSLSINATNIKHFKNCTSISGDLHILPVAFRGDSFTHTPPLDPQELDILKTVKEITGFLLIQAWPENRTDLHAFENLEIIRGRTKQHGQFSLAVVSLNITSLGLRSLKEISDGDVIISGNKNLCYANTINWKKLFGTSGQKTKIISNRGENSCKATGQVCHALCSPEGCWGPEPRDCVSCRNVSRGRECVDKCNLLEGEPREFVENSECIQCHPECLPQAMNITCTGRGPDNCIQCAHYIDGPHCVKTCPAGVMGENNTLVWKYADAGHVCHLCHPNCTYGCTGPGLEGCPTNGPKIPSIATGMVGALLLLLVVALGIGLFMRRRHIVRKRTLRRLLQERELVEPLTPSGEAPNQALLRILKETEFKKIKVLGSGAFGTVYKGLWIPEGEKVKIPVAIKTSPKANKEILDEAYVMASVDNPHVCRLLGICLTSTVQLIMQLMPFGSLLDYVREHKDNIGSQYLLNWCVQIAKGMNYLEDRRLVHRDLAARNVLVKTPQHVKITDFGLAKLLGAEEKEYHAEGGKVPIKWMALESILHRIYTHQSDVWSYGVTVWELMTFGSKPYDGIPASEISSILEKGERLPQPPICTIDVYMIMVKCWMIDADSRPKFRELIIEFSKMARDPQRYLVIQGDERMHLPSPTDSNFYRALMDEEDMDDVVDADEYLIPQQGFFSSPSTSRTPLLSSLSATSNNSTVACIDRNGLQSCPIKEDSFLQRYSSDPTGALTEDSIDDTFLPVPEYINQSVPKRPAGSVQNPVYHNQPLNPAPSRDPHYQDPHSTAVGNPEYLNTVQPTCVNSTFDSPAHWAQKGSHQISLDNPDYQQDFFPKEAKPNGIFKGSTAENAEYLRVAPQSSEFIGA

In series [1], `Cc1nn(C)cc1-c1nccc(Nc2cc3c(C(C)C)ccc(N4C[C@H](CS(C)(=O)=O)[C@H]4C)c3cn2)n1` [Example 1, N-(2-(1,3-dimethyl-1H-pyrazolyl-4-yl)pyrimidin-4-yl)-5-isopropyl-8-((2R,3S)-2-methyl-3-((methanesulfonyl)methyl)azabut-1-yl)isoquinolin-3-amine] showed an AUC(0-t) of 1.41 µg·h/mL, a Cmax of 0.287 µg/mL and a half-life of 2.7 h. The GI50 in series [2] is 4.5 nM. Moreover, the GI50 in series [3] was 12 nM.
For `[2H]C([2H])([2H])n1cc(-c2nccc(Nc3cc4c(C(C)C)ccc(N5C[C@H](CS(C)(=O)=O)[C@H]5C)c4cn3)n2)c(C)n1` [Example 2, 5-isopropyl-N-(2-(3-methyl-1-(methyl-d3)-1H-pyrazol-4-yl)pyrimidin-4-yl)-8-((2R,3S)-2-methyl-3-((methylsulfonyl)methyl)azetidin-1-yl)isoquinolin-3-amine], the values for the GI50 in series [2] and in series [3] were 6.2 nM and 13 nM, respectively.
Take `[2H]C([2H])([2H])c1nn(C([2H])([2H])[2H])cc1-c1nccc(Nc2cc3c(C(C)C)ccc(N4C[C@H](CS(C)(=O)=O)[C@H]4C)c3cn2)n1` [Example 4, N-(2-(1,3-bis(methyl-d3)-1H-pyrazol-4-yl)pyrimidin-4-yl)-5-isopropyl-8-((2R,3S)-2-methyl-3-((methylsulfonyl)methyl)azabut-1-yl)isoquinolin-3-amine]: the GI50 in series [2] turned out to be 7.7 nM; in series [3], 20 nM.
On to `[2H]C([2H])([2H])n1cc(-c2nccc(Nc3cc4c(C(C)C)ccc(N5C[C@H](CS(C)(=O)=O)[C@H]5C)c4cn3)n2)c(Cl)n1` [Example 6, N-(2-(3-chloro-1-(methyl-d3)-1H-pyrazol-4-yl)pyrimidin-4-yl)-5-isopropyl-8-((2R,3S)-2-methyl-3-((methylsulfonyl)methyl)azetidin-1-yl)isoquinolin-3-amine], for which the GI50 stood at 13 nM in series [4], 5.1 nM in series [2] and 5.1 nM in series [3].
Take `CC(C)c1ccc(N2CC(NS(C)(=O)=O)C2)c2cnc(Nc3ccnc(-c4cn(C)nc4Cl)n3)cc12` [Example 44, N-(1-(3-((2-(3-chloro-1-methyl-1H-pyrazol-4-yl)pyrimidin-4-yl)amino)-5-isopropylisoquinolin-8-yl)azetidin-3-yl)methanesulfonamide]: the GI50 in series [2] amounted to 10 nM; in series [3], 8.4 nM.
In series [1], `CC(C)c1ccc(N2CC(N(C)S(C)(=O)=O)C2)c2cnc(Nc3ccnc(-c4cn(C)nc4Cl)n3)cc12` [Example 67, N-(1-(3-((2-(3-chloro-1-methyl-1H-pyrazol-4-yl)pyrimidin-4-yl)amino)-5-isopropylisoquinolin-8-yl)azetidin-3-yl)-N-methyl methanesulfonamide] had an AUC(0-t) of 2.17 µg·h/mL, a Cmax of 0.186 µg/mL and a half-life of 2.7 h. Moreover, the GI50 in series [2] is 4 nM. Moreover, the GI50 in series [3] came to 3.2 nM.
Regarding `COC(C)Cn1cc(-c2nccc(Nc3cc4c(C(C)C)ccc(N5C[C@H](CS(C)(=O)=O)[C@H]5C)c4cn3)n2)c(Cl)n1` (stereo partly drawn) [Example 116A, N-(2-(3-chloro-1-(2-methoxypropyl)-1H-pyrazol-4-yl)pyrimidin-4-yl)-5-isopropyl-8-((2R,3S)-2-methyl-3-((methanesulfonyl)methyl)azetidin-1-yl)isoquinolin-3-amine], the GI50 was found to be 7.6 nM in series [2] and 33 nM in series [3].
Regarding `CC(C)c1c(F)cc(N2C[C@H](CS(C)(=O)=O)[C@H]2C)c2cnc(Nc3ccnc(-c4cn(C)nc4Cl)n3)cc12` [Example 120, N-(2-(3-chloro-1-methyl-1H-pyrazol-4-yl)pyrimidin-4-yl)-6-fluoro-5-isopropyl-8-((2R,3S)-2-methyl-3-((methanesulfonyl)methyl)azetidin-1-yl)isoquinolin-3-amine], the GI50 in series [4] is 14 nM; in series [2] it was 7.1 nM; in series [3], 11 nM.
As to `CC(C)c1c(F)cc(N2C[C@H](N(C)S(C)(=O)=O)[C@H]2C)c2cnc(Nc3ccnc(-c4cn(C)nc4Cl)n3)cc12` [Example 121, N-((2R,3S)-1-(3-((2-(3-chloro-1-methyl-1H-pyrazol-4-yl)pyrimidin-4-yl)amino)-6-fluoro-5-isopropylisoquinolin-8-yl)-2-methylazetidin-3-yl)-N-methyl methanesulfonamide], the GI50 was 15 nM in series [4], 4.5 nM in series [2] and 6.2 nM in series [3].
In the case of `Cc1nn(C)cc1-c1nccc(Nc2cc3c(C(C)C)c(F)cc(N4C[C@H](CS(C)(=O)=O)[C@H]4C)c3cn2)n1` [Example 125, N-(2-(1,3-dimethyl-1H-pyrazol-4-yl)pyrimidin-4-yl)-6-fluoro-5-isopropyl-8-((2R,3S)-2-methyl-3-((methanesulfonyl)methyl)azetidin-1-yl)isoquinolin-3-amine], the GI50 in series [2] is 6.8 nM; in series [3] it was 18 nM.
As for `Cc1nn(C)cc1-c1nccc(Nc2cc3c(C(C)C)c(F)cc(N4C[C@H](N(C)S(C)(=O)=O)[C@H]4C)c3cn2)n1` [Example 127, N-((2R,3S)-1-(3-((2-(1,3-dimethyl-1H-pyrazol-4-yl)pyrimidin-4-yl)amino)-6-fluoro-5-isopropylisoquinolin-8-yl)-2-methylazetidin-3-yl)-N-methyl methanesulfonamide], the GI50 in series [2] is 4.5 nM; in series [3], 7.8 nM.
For the compound `CC(C)c1cnc(N2CC(N(C)S(C)(=O)=O)C2)c2cnc(Nc3ccnc(-c4cn(C)nc4Cl)n3)cc12` [Example 130, N-(1-(6-((2-(3-chloro-1-methyl-1H-pyrazol-4-yl)pyrimidin-4-yl)amino)-4-isopropyl-2,7-diazanaphthalen-1-yl)azetidin-3-yl)-N-methyl methanesulfonamide], the GI50 in series [2] came to 8.1 nM; in series [3], 5.9 nM.
`CC(C)c1ccc(N2C[C@H](CS(C)(=O)=O)[C@H]2C)c2cnc(Nc3ccnc(-c4cn(CC(O)CF)nc4Cl)n3)cc12` (stereo partly drawn) [Example 172, 1-(3-chloro-4-(4-((5-isopropyl-8-((2R,3S)-2-methyl-3-((methanesulfonyl)methyl)azetidin-1-yl)isoquinolin-3-yl)amino)pyrimidin-2-yl)-1H-pyrazol-1-yl)-3-fluoropropan-2-ol]: the GI50 in series [2] turned out to be 5 nM; in series [3], 33 nM.
On to `CC(C)c1ccc(N2C[C@H](CS(C)(=O)=O)[C@H]2C)c2cnc(Nc3ccnc(-c4cn(C[C@@H]5CCO5)nc4Cl)n3)cc12` [Example 182, N-(2-(3-chloro-1-(((S)-oxetan-2-yl)methyl)-1H-pyrazol-4-yl)pyrimidin-4-yl)-5-isopropyl-8-((2R,3S)-2-methyl-3-((methanesulfonyl)methyl)azetidin-1-yl)isoquinolin-3-amine], for which the figures for the GI50 in series [4] and in series [2] were 10 nM and 4.4 nM, respectively.
